Measurements published in patent US9353067B2, “Heterocyclic compounds and uses thereof in the treatment of sexual disorders” (ATIR Holding S.A., priority 2011, dated 2016).
Values joined by “and” are separate entries in the source; they are usually repeats but may differ in a detail not shown here. Equal entries are not always repeated.

Experiments:
PARP-1 = PARP-1 (Homo sapiens (Human), UniProt P09874); test: Universal Chemiluminescent PARP Assay; format: biochemical
Experimental: In addition, R-55 and its hydrochloride salt were assayed for PARP (poly(ADP-ribose)polymerase) inhibitory activity, as some quinazolinone derivatives, particularly derivatives comprising quinazolinone linked via a three-carbon moiety to substituted pyridinyl and piperazinyl moieties, have been identified as potent PARP inhibitors [U.S. Patent Application Publication No. 2004/0077667; Iwashita et al., FEBS Lett 579:1389-1393(2005); Hattori et al., J Med Chem 47:4151-4154(2004)]. PARP plays a natural role in repair of DNA damage, and inhibition of PARP may lead to undesirable side effects in any treatment of a sexual disorder.
Inhibition of PARP-1 was assayed using a Universal Chemiluminescent PARP Assay (Trevigen, Inc.).
The tested compounds were diluted from 2.1 mg of powder in 25 μl of DMSO. The tested compounds were diluted to 100 μM in 1% DMSO/99% ethanol. 3-Aminobenzamide (3-AB), a commercially available weak PARP inhibitor, was used as a positive control. The activity of PARP was quantified as relative light units (RLU). Each of the tested compounds was assayed twice.
In Assay 1, the 100 μM stock solution was diluted to 40 μM in 1×PARP buffer. The compounds were then serially diluted down to 0.4 μM. Each tested compound was
further diluted 1:4 during the assay, so the final concentrations ranged from 10 μM to 0.1 μM.
In Assay 2, the 100 μM stock was added to 1×PARP buffer to prepare samples with concentrations ranging from 40 μM to 2 μM. A 10 μM stock solution was added to 1×PARP buffer to prepare samples with concentrations of 1 μM and 0.4 μM. Each tested compound was further diluted 1:4 during the assay, so the final concentrations ranged from 10 μM to 0.1 μM.

Dopamine D5 receptor = Dopamine D5 receptor (Homo sapiens (Human), UniProt P21918); test: Competitive binding, SCH-23390 radioligand
Dopamine D5 receptor, sequence (P21918 whole entry): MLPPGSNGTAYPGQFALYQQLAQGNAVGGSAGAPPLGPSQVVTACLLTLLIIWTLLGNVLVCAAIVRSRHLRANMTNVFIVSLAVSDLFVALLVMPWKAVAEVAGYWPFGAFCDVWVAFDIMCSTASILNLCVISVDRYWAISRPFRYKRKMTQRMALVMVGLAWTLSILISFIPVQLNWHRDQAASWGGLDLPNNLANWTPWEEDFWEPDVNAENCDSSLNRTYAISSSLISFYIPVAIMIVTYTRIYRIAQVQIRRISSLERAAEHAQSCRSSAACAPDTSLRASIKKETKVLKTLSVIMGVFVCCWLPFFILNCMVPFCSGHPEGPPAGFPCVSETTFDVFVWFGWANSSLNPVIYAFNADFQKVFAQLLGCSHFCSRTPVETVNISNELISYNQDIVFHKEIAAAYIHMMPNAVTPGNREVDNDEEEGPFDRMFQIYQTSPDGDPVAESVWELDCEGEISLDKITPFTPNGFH
Experimental: (§1) R-55 (which comprises a 3-hydroxyphenyl moiety) and the structurally related compounds N-108 (2-{[4-(2-ethoxyphenyl)piperazin-1-yl]methyl}quinazolin-4(3H)-one) and B-39 (7-chloro-2-((5,6-dihydro-4-(2-methoxyphenyl)pyridin-1(2H)-yl)methyl)quinazolin-4(3H)-one) were assayed for competitive binding to a variety of receptors, including D4.4 type dopamine receptor, in order to assess their specificity for D4.4 dopamine receptors.
(§2) The receptors were expressed as human recombinant proteins in CHO cells, except for adrenergic α1 and α2 receptors which were expressed in Wistar rat brain and cerebral cortex cells, respectively, and melanocortin MC4 receptor which was expressed in human recombinant HEK-293 cells. Binding was determined using the following radioligands in the presence of various concentrations of the tested compound:
(§3) 1.4 nM and 2 nM SCH-23390, respectively, for dopamine D1 and D5 receptors,
(§4) The binding assays were performed in accordance with procedures described in the literature (Greengrass & Bremner, 1979; Boyajian & Leslie, 1987; Broadhurst, 1988; Lewis, 2001; Sutton, 1995; Dearry, 1990; Zhou, 1990; Grandy, 1989; Hayes, 1992; Sokoloff, 1990; Van Tol, 1991; Van Tol 1992; Sunahara, 1991; Weinshank, 1991; Schioth, 1996; Schioth 1997; Martin & Humphrey, 1994; May, 2003; Wolf & Schutz, 1997).

Dopamine D1 receptor = Dopamine D1 receptor (Homo sapiens (Human), UniProt P21728); test: Competitive binding, SCH-23390 radioligand
Dopamine D1 receptor, sequence (P21728 whole entry): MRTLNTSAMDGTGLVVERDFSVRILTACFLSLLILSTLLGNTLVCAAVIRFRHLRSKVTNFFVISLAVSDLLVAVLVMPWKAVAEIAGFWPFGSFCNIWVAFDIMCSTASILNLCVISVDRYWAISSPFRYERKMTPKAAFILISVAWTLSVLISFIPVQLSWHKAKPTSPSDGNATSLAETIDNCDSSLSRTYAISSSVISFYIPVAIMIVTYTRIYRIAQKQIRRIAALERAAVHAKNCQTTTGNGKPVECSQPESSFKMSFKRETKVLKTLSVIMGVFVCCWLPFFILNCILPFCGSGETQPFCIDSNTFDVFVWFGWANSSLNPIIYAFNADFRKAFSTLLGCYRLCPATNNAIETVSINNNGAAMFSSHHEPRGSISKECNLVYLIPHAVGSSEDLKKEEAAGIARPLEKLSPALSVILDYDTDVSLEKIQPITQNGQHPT
Experimental: as §1, §2, §3, §4

CRF1 receptor = CRF1 receptor (Homo sapiens (Human), UniProt P34998); test: Competitive binding, (Tyr0)-CRF radioligand
CRF1 receptor, sequence (P34998 24-415): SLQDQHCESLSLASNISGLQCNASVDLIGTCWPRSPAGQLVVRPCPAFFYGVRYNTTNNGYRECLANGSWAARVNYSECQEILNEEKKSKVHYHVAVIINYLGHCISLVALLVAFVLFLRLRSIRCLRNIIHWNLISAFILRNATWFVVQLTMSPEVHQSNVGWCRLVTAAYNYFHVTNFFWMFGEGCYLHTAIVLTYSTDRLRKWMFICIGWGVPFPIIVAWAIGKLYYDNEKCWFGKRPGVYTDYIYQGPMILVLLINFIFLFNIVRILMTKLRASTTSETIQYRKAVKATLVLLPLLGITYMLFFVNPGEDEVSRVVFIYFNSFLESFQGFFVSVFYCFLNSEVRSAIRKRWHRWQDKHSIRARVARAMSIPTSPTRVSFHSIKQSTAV
Experimental: as §1, §2
0.05 nM)(Tyr^0)-corticotropin releasing factor (CRF) for corticotropin releasing factor CRF1 receptor,
as §4

[1] = Transdermal administration of R-55 formulation to pigs, plasma R-55; format: in vivo, White Landrace female pigs
Experimental: R-55 and related compounds were assayed in the plasma samples using a Waters (USA) Alliance high performance liquid chromatograph coupled with a Waters Micromass ZQ quadruple mass spectrometer (in ESI+ mode) as a detector with Waters Empower chromatographic and mass spectrometric software for chromatographic data acquisition, processing and instrument control.
The tested compound was extracted from plasma using dichloromethane, followed by concentration by evaporating the extract and dissolution in a low volume chromatographic mobile phase.
The instrument was calibrated using plasma spiked with various concentrations of the tested compound. Enrofloxacin (m/z=360.4) was used as an internal standard.
In order to investigate the feasibility of transdermal administration of R-55, the presence of R-55 in plasma was measured following administration to pigs of the exemplary transdermal formulation described in Example 5.
White Landrace female pigs were acclimatized for 5 days prior to application of the formulation. 50 ml of the formulation (containing 500 mg R-55) was applied over a 15×7 cm area of the skin of each pig, in a single dose. In order to facilitate constant transdermal administration for at least 6 hours, a suitable plastic shield, attached by adhesive plaster, was used to cover the whole treated dermal surface area for six hours.
Clinical observations were performed during the six hours following application.
Blood samples were withdrawn from each pig via a jugular vein catheter at the following time points: immediately prior to application (t=0) and 15 minutes, 30 minutes, 45 minutes, 60 minutes, 90 minutes, 2 hours, 4 hours, and 6 hours post-application. All samples were collected in commercially available, EDTA supplemented test-tubes. Blood samples were stored on crushed ice after collection. Plasma was separated by centrifugation (10 minutes at 3000 rotations per minute), within one hour post-sampling. Each plasma sample was divided into two aliquots before freezing. Plasma samples were then stored at −20° C. until being dispatched for LCMS analysis.

[2] = molecular target: Melanocortin MC4 receptor (Homo sapiens (Human), UniProt P32245); test: Competitive binding, NDP-α-MSH radioligand
Melanocortin MC4 receptor, sequence (P32245 whole entry): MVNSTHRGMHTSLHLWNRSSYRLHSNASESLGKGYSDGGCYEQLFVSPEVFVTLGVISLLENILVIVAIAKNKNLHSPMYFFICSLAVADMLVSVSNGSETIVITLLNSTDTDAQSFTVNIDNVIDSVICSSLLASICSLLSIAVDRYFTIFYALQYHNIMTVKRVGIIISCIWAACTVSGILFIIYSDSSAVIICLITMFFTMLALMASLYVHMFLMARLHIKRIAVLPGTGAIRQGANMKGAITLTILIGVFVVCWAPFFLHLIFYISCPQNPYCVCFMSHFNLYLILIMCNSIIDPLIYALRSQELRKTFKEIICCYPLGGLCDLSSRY
Experimental: as §1, §2
0.02 nM NDP-α-MSH for melanocortin MC4 receptor,
as §4

PARP-1, sequence (P09874 whole entry): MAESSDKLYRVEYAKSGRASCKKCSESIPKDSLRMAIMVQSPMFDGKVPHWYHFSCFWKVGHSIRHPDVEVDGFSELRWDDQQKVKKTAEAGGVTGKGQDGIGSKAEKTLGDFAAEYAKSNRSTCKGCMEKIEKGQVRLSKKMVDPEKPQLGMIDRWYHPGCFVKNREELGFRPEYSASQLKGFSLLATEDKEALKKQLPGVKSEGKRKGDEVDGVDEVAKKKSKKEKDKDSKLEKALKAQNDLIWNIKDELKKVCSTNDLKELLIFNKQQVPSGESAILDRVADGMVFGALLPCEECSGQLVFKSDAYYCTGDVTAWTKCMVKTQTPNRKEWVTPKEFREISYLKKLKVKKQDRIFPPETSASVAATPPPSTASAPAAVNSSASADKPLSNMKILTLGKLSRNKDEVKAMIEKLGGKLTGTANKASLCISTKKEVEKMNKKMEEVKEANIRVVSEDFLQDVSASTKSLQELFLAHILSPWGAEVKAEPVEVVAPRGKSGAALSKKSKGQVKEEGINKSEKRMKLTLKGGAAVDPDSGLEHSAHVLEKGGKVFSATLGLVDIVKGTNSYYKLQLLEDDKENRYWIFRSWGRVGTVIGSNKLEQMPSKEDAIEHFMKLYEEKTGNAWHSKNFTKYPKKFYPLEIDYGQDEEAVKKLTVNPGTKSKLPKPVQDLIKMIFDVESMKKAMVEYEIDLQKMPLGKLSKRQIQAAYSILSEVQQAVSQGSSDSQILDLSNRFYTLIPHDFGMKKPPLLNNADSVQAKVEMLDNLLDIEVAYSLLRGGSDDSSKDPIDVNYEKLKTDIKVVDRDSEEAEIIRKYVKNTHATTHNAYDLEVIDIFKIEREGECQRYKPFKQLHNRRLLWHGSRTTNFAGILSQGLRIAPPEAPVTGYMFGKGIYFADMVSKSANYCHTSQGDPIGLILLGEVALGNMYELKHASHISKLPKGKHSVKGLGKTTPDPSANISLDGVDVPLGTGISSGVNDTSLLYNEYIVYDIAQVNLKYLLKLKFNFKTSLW

Question: With `O=c1[nH]c(CN2CCN(c3cccc(O)c3)CC2)nc2ccccc12` [Compound R-55, 2-((4-(3-hydroxyphenyl)piperazin-1-yl)methyl)quinazolin-4-one] as the compound, how does the inhibition at 5 µM (PARP-1; 5 μM, average results from two assays) read?
Answer: Its inhibition at 5 µM is 19%.

Question: And the inhibition at 10 µM (PARP-1; 10 μM, average results from two assays)?
Answer: Its inhibition at 10 µM is 21%.

Question: What about the “inhibition of PARP (in words)” value (PARP-1; Assay 1 and Assay 2, 0.1 μM to 10 μM) of the same compound?
Answer: Its value is “did not exhibit any significant inhibition of PARP”.

Question: And the “Competitive binding (%) at 5 μM of tested compound” value (shortened to “Competitive binding (%) at 5 μM”) (Dopamine D5 receptor)?
Answer: The value was 0%.

Question: And the “Competitive binding (%) at 5 μM” value (Dopamine D1 receptor)?
Answer: The value was −12%.

Question: What about the “Competitive binding (%) at 5 μM” value (CRF1 receptor) of the same compound?
Answer: The value was 3%.

Question: What about the concentration at 0 min ([1]; female, White Landrace, pig, plasma, topical, 500 mg, transdermal 500 mg R-55 (50 ml formulation), 0 minutes (immediately prior to application), individual animals #1-#4) of the same compound?
Answer: Its concentration at 0 min is 0 ng/mL.

Question: What about the concentration at 30 min ([1]; female, White Landrace, pig, plasma, topical, 500 mg, transdermal 500 mg R-55, 30 minutes after application, individual animals #1-#4) of the same compound?
Answer: The concentration at 30 min was 16.7 ng/mL.

Question: And the concentration at 4 h ([1]; female, White Landrace, pig, plasma, topical, 500 mg, transdermal 500 mg R-55, 4 hours after application, individual animals #1-#4)?
Answer: The concentration at 4 h was 0 ng/mL.

Question: And the concentration at 6 h ([1]; female, White Landrace, pig, plasma, topical, 500 mg, transdermal 500 mg R-55, 6 hours after application, individual animals #1-#4)?
Answer: The concentration at 6 h was 0 ng/mL.

Question: What about the “R-55 concentration (plasma)” value ([1]; transdermal 500 mg R-55 (50 ml formulation), 0 minutes (immediately prior to application), individual animals #1-#4) of the same compound?
Answer: Its value is 0 ng/mL.

Question: And the “R-55 concentration (plasma)” value ([1]; transdermal 500 mg R-55, 15 minutes after application, individual animals #1-#4)?
Answer: The value was 0 ng/ml (3×) and 10.8 ng/ml.

Question: And the “R-55 concentration (plasma)” value ([1]; transdermal 500 mg R-55, 30 minutes after application, individual animals #1-#4)?
Answer: Its value is 19.9 ng/mL and 11.8 ng/mL and 15.2 ng/mL.

Question: What about the “R-55 concentration (plasma)” value ([1]; transdermal 500 mg R-55, 45 minutes after application, individual animals #1-#4) of the same compound?
Answer: The value was 0 ng/ml (3×) and 10.5 ng/ml.

Question: What about the “R-55 concentration (plasma)” value ([1]; transdermal 500 mg R-55, 60 minutes after application, individual animals #1-#4) of the same compound?
Answer: Its value is 10.3 ng/ml and 0 ng/ml (2×) and 10.7 ng/ml.

Question: What about the “R-55 concentration (plasma)” value ([1]; transdermal 500 mg R-55, 90 minutes after application, individual animals #1-#4) of the same compound?
Answer: The value was 16.8 ng/ml and 0 ng/ml (2×) and 10.1 ng/ml.

Question: What about the “R-55 concentration (plasma)” value ([1]; transdermal 500 mg R-55, 2 hours after application, individual animals #1-#4) of the same compound?
Answer: The value was 14.8 ng/mL and 11.8 ng/mL and 0 ng/mL and 10.7 ng/mL.

Question: What about the “R-55 concentration (plasma)” value ([1]; transdermal 500 mg R-55, 4 hours after application, individual animals #1-#4) of the same compound?
Answer: The value was 0 ng/mL.

Question: What about the “R-55 concentration (plasma)” value ([1]; transdermal 500 mg R-55, 6 hours after application, individual animals #1-#4) of the same compound?
Answer: Its value is 0 ng/mL.

Question: And the Clinical observations ([1]; transdermal 500 mg R-55, six hours following application)?
Answer: Its Clinical observations is “No clinical abnormalities were observed”.

Question: And the “duration of relatively stable concentration of R-55 in plasma after administration” value ([1]; transdermal administration)?
Answer: The value was “at least 2 hours”.

Question: And the “Competitive binding (%) at 5 μM” value [2]?
Answer: The value was 3%.
